Results on 17 compounds are retold here after ChEMBL document CHEMBL1124594, “4-(Phosphonoalkyl)- and 4-(phosphonoalkenyl)-2-piperidinecarboxylic acids: synthesis, activity at N-methyl-D-aspartic acid receptors, and anticonvulsant activity” (J Med Chem, 1989).

Where only a bound is given, the exact number is not on record here.

A word on the IC50: it is the point on the concentration scale where inhibition reaches its midpoint. A word on the ED50: it is the dose that gives a 50% effect, or the effect in half of the subjects. Read a low ED50 as an effect at a small dose.

Experiment [1] deals with Glutamate NMDA receptor. Kind of experiment: Inhibition of [3H]-CGS- 19755 binding to N-methyl-D-aspartic acid receptors in rat crude synaptic membranes. It counts as cell membranes, Membrane.
Experiment [2] deals with Mus musculus. Nature of the experiment: Effective dose of the intraperitoneally administered compound protecting mice against tonic seizures, was tested in N-methyl-D-aspartic acid convulsions model. Format: functional. The note with it: ip.
Experiment [3] relates to Mus musculus. Nature of the experiment: Effective dose of the intraperitoneally administered compound causing loss of traction reflex, was tested in N-methyl-D-aspartic acid convulsions model. It counts as functional. The note with it: ip.
Experiment [4] concerns the target Glutamate NMDA receptor. Kind of experiment: Inhibition of [3H]-CGS- 19755 binding to N-methyl-D-aspartate glutamate receptor in rat crude synaptic membranes. Format: cell membranes, Membrane.

At Glutamate NMDA receptor [1], `O=C(O)C1CN(CCCP(=O)(O)O)CCN1` (stereo not drawn) showed a 50% inhibitory concentration (IC50) of 220 nM. In addition, the ED50 is 1.9 mg/kg in the experiment with Mus musculus [2] and 6.1 mg/kg in the experiment on Mus musculus [3].

Take `O=C(O)[C@H]1C[C@@H](/C=C/CP(=O)(O)O)CCN1`: the ED50 is 1.2 mg/kg in the experiment on Mus musculus [2] and 1.9 mg/kg in the experiment with Mus musculus [3]. For the same compound, the half-inhibitory concentration (IC50) on Glutamate NMDA receptor [4] was determined as 14 nM.

Consider `CC([C@H]1CCN[C@@H](C(=O)O)C1)P(=O)(O)O` (stereo partly drawn), for which the ED50 with Mus musculus [2] came out at 21 mg/kg; with Mus musculus [3], 64 mg/kg. Further, the half-inhibitory concentration (IC50) on Glutamate NMDA receptor [4] came out at 800 nM.

`C[C@@H]1C[C@H](CP(=O)(O)O)C[C@H](C(=O)O)N1`: the median effective dose (ED50) in the experiment on Mus musculus [2] came out at 34 mg/kg; with Mus musculus [3], 84 mg/kg. The IC50 on Glutamate NMDA receptor [4] came to 1600 nM.

On to `O=C(O)[C@H]1C[C@H](/C=C/CP(=O)(O)O)CCN1`, for which the values for the ED50 with Mus musculus [2] and in the experiment on Mus musculus [3] were 8.3 mg/kg and 14 mg/kg, respectively. Also, the IC50 at Glutamate NMDA receptor [4] was 39 nM.

As for `C[C@H]1CN[C@@H](C(=O)O)C[C@H]1CP(=O)(O)O`, the ED50 with Mus musculus [2] amounted to 7.1 mg/kg; with Mus musculus [3], 29 mg/kg. Moreover, at Glutamate NMDA receptor [4], the IC50 was 78 nM.

Turning to `O=C(O)[C@H]1C[C@H](C/C=C/P(=O)(O)O)CCN1`, the 50% effective dose (ED50) is 10 mg/kg in the experiment on Mus musculus [2] and 20 mg/kg with Mus musculus [3]. Also, the IC50 on Glutamate NMDA receptor [4] was found to be 80 nM.

In turn, `CC(C)([C@H]1CCN[C@@H](C(=O)O)C1)P(=O)(O)O` registered an IC50 at Glutamate NMDA receptor [4] of 1300 nM.

As to `O=C(O)[C@H]1C[C@@H](C/C=C/P(=O)(O)O)CCN1`, the 50% effective dose (ED50) with Mus musculus [2] came out at 2.5 mg/kg; in the experiment with Mus musculus [3], 14 mg/kg. The IC50 on Glutamate NMDA receptor [4] was determined as 72 nM.

In the case of `C[C@H]1[C@@H](CP(=O)(O)O)CCN[C@H]1C(=O)O`, the ED50 with Mus musculus [2] is 26 mg/kg; with Mus musculus [3], 33 mg/kg. Moreover, on Glutamate NMDA receptor [4], the 50% inhibitory concentration (IC50) amounted to 1300 nM.

`O=C(O)[C@H]1C[C@H](CP(=O)(O)O)CCN1`: the half-inhibitory concentration (IC50) at Glutamate NMDA receptor [4] worked out at 452 nM.

As for `N[C@H](CCCCCP(=O)(O)O)C(=O)O`, the 50% inhibitory concentration (IC50) at Glutamate NMDA receptor [1] turned out to be 912 nM. The values for the ED50 in the experiment with Mus musculus [2] and with Mus musculus [3] were 34 mg/kg and 188 mg/kg, respectively.

Compound `O=C(O)[C@H]1C[C@@H](CCCP(=O)(O)O)CCN1` came in with an IC50 on Glutamate NMDA receptor [1] of 98 nM. For the same compound, the ED50 came out at 2 mg/kg with Mus musculus [2] and 5.4 mg/kg with Mus musculus [3].

Consider `O=C(O)[C@H]1C[C@H](CCCP(=O)(O)O)CCN1`, for which the half-maximal inhibitory concentration (IC50) on Glutamate NMDA receptor [4] worked out at 105 nM.

`CN1CC[C@H](CP(=O)(O)O)C[C@@H]1C(=O)O`: on Glutamate NMDA receptor [4], the 50% inhibitory concentration (IC50) turned out to be 28000 nM.

Take `N[C@@H](CCCP(=O)(O)O)C(=O)O`: at Glutamate NMDA receptor [1], the half-maximal inhibitory concentration (IC50) came to 350 nM. Moreover, the ED50 with Mus musculus [2] and with Mus musculus [3] was > 154 mg/kg in each case.

As for `O=C(O)[C@@H]1C[C@H](CP(=O)(O)O)CCN1` [SELFOTEL], the IC50 at Glutamate NMDA receptor [1] was 32 nM. The 50% effective dose (ED50) in the experiment on Mus musculus [2] is 2.1 mg/kg; with Mus musculus [3], 5.4 mg/kg.
